Data published in PubChem BioAssay (NCI).
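Cultured in 96-well plates, cells were exposed to test compound for 48 hours across five concentrations. Here, GI50 denotes the concentration required for 50% inhibition of growth. TGI is the concentration that stops growth completely.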

What was measured:
Assay in all cases: NCI anticancer screen, dose series, 48 h
SF-295 CNS = test system: SF-295 CNS
SF-539 CNS = test system: SF-539 CNS
NCI-H460 lung = test system: NCI-H460 lung
SF-268 CNS = test system: SF-268 CNS
OVCAR-5 ovarian = test system: OVCAR-5 ovarian
HCT-116 colon = test system: HCT-116 colon
SNB-19 CNS = test system: SNB-19 CNS
K-562 leukemia = test system: K-562 leukemia
ACHN renal = test system: ACHN renal
SNB-75 CNS = test system: SNB-75 CNS
SW-620 colon = test system: SW-620 colon
MCF7 breast = test system: MCF7 breast
EKVX NSCLC = test system: EKVX NSCLC
786-0 renal = test system: 786-0 renal
M14 melanoma = test system: M14 melanoma
HL-60(TB) leukemia = test system: HL-60(TB) leukemia
SK-MEL-28 melanoma = test system: SK-MEL-28 melanoma
DU-145 prostate = test system: DU-145 prostate
HCT-15 colon = test system: HCT-15 colon
BT-549 breast = test system: BT-549 breast
MALME-3M melanoma = test system: MALME-3M melanoma
NCI-H522 lung = test system: NCI-H522 lung
COLO 205 colon = test system: COLO 205 colon
OVCAR-8 ovarian = test system: OVCAR-8 ovarian
OVCAR-4 ovarian = test system: OVCAR-4 ovarian
SR leukemia = test system: SR leukemia
HT29 colon = test system: HT29 colon
UACC-257 melanoma = test system: UACC-257 melanoma
NCI-H226 lung = test system: NCI-H226 lung
NCI/ADR-RES ovarian = test system: NCI/ADR-RES ovarian
IGROV1 ovarian = test system: IGROV1 ovarian
SN12C renal = test system: SN12C renal
MDA-MB-435 = test system: MDA-MB-435
NCI-H23 lung = test system: NCI-H23 lung
A549 NSCLC = test system: A549 NSCLC
TK-10 renal = test system: TK-10 renal
SK-OV-3 ovarian = test system: SK-OV-3 ovarian
HOP-92 NSCLC = test system: HOP-92 NSCLC
U251 CNS = test system: U251 CNS
UACC-62 melanoma = test system: UACC-62 melanoma
OVCAR-3 ovarian = test system: OVCAR-3 ovarian
SK-MEL-2 melanoma = test system: SK-MEL-2 melanoma
A498 renal = test system: A498 renal
LOX IMVI melanoma = test system: LOX IMVI melanoma
CCRF-CEM leukemia = test system: CCRF-CEM leukemia
T-47D breast = test system: T-47D breast
SK-MEL-5 melanoma = test system: SK-MEL-5 melanoma
HS 578T breast = test system: HS 578T breast
HOP-62 NSCLC = test system: HOP-62 NSCLC
RPMI-8226 leukemia = test system: RPMI-8226 leukemia
PC-3 prostate = test system: PC-3 prostate
HCC-2998 colon = test system: HCC-2998 colon
MDA-MB-231 breast = test system: MDA-MB-231 breast
UO-31 renal = test system: UO-31 renal
MOLT-4 leukemia = test system: MOLT-4 leukemia
RXF 393 renal = test system: RXF 393 renal
CAKI-1 renal = test system: CAKI-1 renal
KM12 colon = test system: KM12 colon

`COC1/C=C/OC2(C)Oc3c(C)c(O)c4c(O)c(c(C=NOC(c5ccccc5)c5ccccc5)c(O)c4c3C2=O)NC(=O)/C(C)=C/C=C/C(C)C(O)C(C)C(O)C(C)C(OC(C)=O)C1C` (stereo unspecified) was tested. Which GI50 (SF-295 CNS) did it give?
The GI50 was 1210 nM.

What about the TGI (SF-295 CNS) of the same compound?
The TGI was 3570 nM.

What about the GI50 (SF-539 CNS) of the same compound?
The GI50 was 979 nM.

And the TGI (SF-539 CNS)?
Its TGI is 1950 nM.

And the GI50 (NCI-H460 lung)?
The GI50 was 1050 nM.

And the TGI (NCI-H460 lung)?
The TGI was 2180 nM.

What about the GI50 (SF-268 CNS) of the same compound?
Its GI50 is 2250 nM.

And the TGI (SF-268 CNS)?
The TGI was 8230 nM.

What about the GI50 (OVCAR-5 ovarian) of the same compound?
The GI50 was 984 nM.

And the TGI (OVCAR-5 ovarian)?
Its TGI is 2490 nM.

What about the GI50 (HCT-116 colon) of the same compound?
The GI50 was 970 nM.

What about the TGI (HCT-116 colon) of the same compound?
The TGI was 1860 nM.

What about the GI50 (SNB-19 CNS) of the same compound?
The GI50 was 1890 nM.

What about the TGI (SNB-19 CNS) of the same compound?
The TGI was 6870 nM.

And the GI50 (K-562 leukemia)?
The GI50 was 2170 nM.

What about the TGI (K-562 leukemia) of the same compound?
Its TGI is 50000 nM.

What about the GI50 (ACHN renal) of the same compound?
Its GI50 is 1170 nM.

And the TGI (ACHN renal)?
The TGI was 2730 nM.

And the GI50 (SNB-75 CNS)?
Its GI50 is 1340 nM.

What about the TGI (SNB-75 CNS) of the same compound?
Its TGI is 5730 nM.

What about the GI50 (SW-620 colon) of the same compound?
Its GI50 is 1350 nM.

What about the TGI (SW-620 colon) of the same compound?
The TGI was 3720 nM.

And the GI50 (MCF7 breast)?
Its GI50 is 1310 nM.

What about the TGI (MCF7 breast) of the same compound?
The TGI was 3810 nM.

What about the GI50 (EKVX NSCLC) of the same compound?
Its GI50 is 1820 nM.

And the TGI (EKVX NSCLC)?
Its TGI is 7670 nM.

What about the GI50 (786-0 renal) of the same compound?
Its GI50 is 1290 nM.

And the TGI (786-0 renal)?
The TGI was 3060 nM.

What about the GI50 (M14 melanoma) of the same compound?
Its GI50 is 1180 nM.

What about the TGI (M14 melanoma) of the same compound?
Its TGI is 2820 nM.

What about the GI50 (HL-60(TB) leukemia) of the same compound?
Its GI50 is 1840 nM.

What about the TGI (HL-60(TB) leukemia) of the same compound?
Its TGI is 3830 nM.

And the GI50 (SK-MEL-28 melanoma)?
The GI50 was 959 nM.

What about the TGI (SK-MEL-28 melanoma) of the same compound?
The TGI was 2080 nM.

What about the GI50 (DU-145 prostate) of the same compound?
Its GI50 is 2050 nM.

What about the TGI (DU-145 prostate) of the same compound?
The TGI was 6870 nM.

And the GI50 (HCT-15 colon)?
The GI50 was 1170 nM.

And the TGI (HCT-15 colon)?
Its TGI is 2960 nM.

What about the GI50 (BT-549 breast) of the same compound?
The GI50 was 1620 nM.

And the TGI (BT-549 breast)?
Its TGI is 5470 nM.

What about the GI50 (MALME-3M melanoma) of the same compound?
The GI50 was 1190 nM.

What about the TGI (MALME-3M melanoma) of the same compound?
The TGI was 3380 nM.

And the GI50 (NCI-H522 lung)?
The GI50 was 1180 nM.

What about the TGI (NCI-H522 lung) of the same compound?
Its TGI is 3970 nM.

What about the GI50 (COLO 205 colon) of the same compound?
The GI50 was 1010 nM.

What about the TGI (COLO 205 colon) of the same compound?
The TGI was 2060 nM.

And the GI50 (OVCAR-8 ovarian)?
The GI50 was 1560 nM.

What about the TGI (OVCAR-8 ovarian) of the same compound?
The TGI was 4640 nM.

What about the GI50 (OVCAR-4 ovarian) of the same compound?
Its GI50 is 1630 nM.

What about the TGI (OVCAR-4 ovarian) of the same compound?
Its TGI is 6010 nM.

What about the GI50 (SR leukemia) of the same compound?
Its GI50 is 1940 nM.

And the TGI (SR leukemia)?
The TGI was 5930 nM.

And the GI50 (HT29 colon)?
The GI50 was 1010 nM.

What about the TGI (HT29 colon) of the same compound?
Its TGI is 2130 nM.

And the GI50 (UACC-257 melanoma)?
The GI50 was 1140 nM.

And the TGI (UACC-257 melanoma)?
Its TGI is 3080 nM.

And the GI50 (NCI-H226 lung)?
The GI50 was 1740 nM.

What about the TGI (NCI-H226 lung) of the same compound?
Its TGI is 8760 nM.

What about the GI50 (NCI/ADR-RES ovarian) of the same compound?
The GI50 was 1670 nM.

And the TGI (NCI/ADR-RES ovarian)?
Its TGI is 6190 nM.

What about the GI50 (IGROV1 ovarian) of the same compound?
Its GI50 is 1720 nM.

What about the TGI (IGROV1 ovarian) of the same compound?
The TGI was 5540 nM.

And the GI50 (SN12C renal)?
The GI50 was 1310 nM.

What about the TGI (SN12C renal) of the same compound?
The TGI was 3530 nM.

What about the GI50 (MDA-MB-435) of the same compound?
The GI50 was 1180 nM.

What about the TGI (MDA-MB-435) of the same compound?
The TGI was 3010 nM.

What about the GI50 (NCI-H23 lung) of the same compound?
The GI50 was 1480 nM.

And the TGI (NCI-H23 lung)?
Its TGI is 5430 nM.

What about the GI50 (A549 NSCLC) of the same compound?
The GI50 was 1580 nM.

And the TGI (A549 NSCLC)?
Its TGI is 6050 nM.

What about the GI50 (TK-10 renal) of the same compound?
Its GI50 is 1140 nM.

And the TGI (TK-10 renal)?
Its TGI is 3590 nM.

And the GI50 (SK-OV-3 ovarian)?
Its GI50 is 1880 nM.

What about the TGI (SK-OV-3 ovarian) of the same compound?
Its TGI is 6670 nM.

What about the GI50 (HOP-92 NSCLC) of the same compound?
The GI50 was 972 nM.

What about the TGI (HOP-92 NSCLC) of the same compound?
Its TGI is 2740 nM.

What about the GI50 (U251 CNS) of the same compound?
Its GI50 is 975 nM.

What about the TGI (U251 CNS) of the same compound?
The TGI was 1960 nM.

And the GI50 (UACC-62 melanoma)?
Its GI50 is 935 nM.

And the TGI (UACC-62 melanoma)?
The TGI was 1970 nM.

And the GI50 (OVCAR-3 ovarian)?
The GI50 was 1000 nM.

And the TGI (OVCAR-3 ovarian)?
The TGI was 2010 nM.

What about the GI50 (SK-MEL-2 melanoma) of the same compound?
Its GI50 is 1050 nM.

And the TGI (SK-MEL-2 melanoma)?
Its TGI is 2540 nM.

What about the GI50 (A498 renal) of the same compound?
Its GI50 is 1180 nM.

And the TGI (A498 renal)?
The TGI was 4600 nM.

What about the GI50 (LOX IMVI melanoma) of the same compound?
Its GI50 is 913 nM.

What about the TGI (LOX IMVI melanoma) of the same compound?
The TGI was 1820 nM.

What about the GI50 (CCRF-CEM leukemia) of the same compound?
The GI50 was 420 nM.

What about the TGI (CCRF-CEM leukemia) of the same compound?
Its TGI is 3620 nM.

And the GI50 (T-47D breast)?
Its GI50 is 1870 nM.

And the TGI (T-47D breast)?
Its TGI is 6710 nM.

What about the GI50 (SK-MEL-5 melanoma) of the same compound?
Its GI50 is 805 nM.

And the TGI (SK-MEL-5 melanoma)?
The TGI was 1520 nM.

What about the GI50 (HS 578T breast) of the same compound?
The GI50 was 1500 nM.

And the TGI (HS 578T breast)?
Its TGI is 5170 nM.

What about the GI50 (HOP-62 NSCLC) of the same compound?
Its GI50 is 916 nM.

What about the TGI (HOP-62 NSCLC) of the same compound?
Its TGI is 1850 nM.

And the GI50 (RPMI-8226 leukemia)?
The GI50 was 1160 nM.

And the TGI (RPMI-8226 leukemia)?
Its TGI is 3190 nM.

And the GI50 (PC-3 prostate)?
Its GI50 is 1340 nM.

And the TGI (PC-3 prostate)?
The TGI was 4150 nM.

And the GI50 (HCC-2998 colon)?
The GI50 was 970 nM.

And the TGI (HCC-2998 colon)?
Its TGI is 1930 nM.

And the GI50 (MDA-MB-231 breast)?
Its GI50 is 1350 nM.

What about the TGI (MDA-MB-231 breast) of the same compound?
Its TGI is 3490 nM.

And the GI50 (UO-31 renal)?
Its GI50 is 1650 nM.

What about the TGI (UO-31 renal) of the same compound?
The TGI was 7740 nM.

What about the GI50 (MOLT-4 leukemia) of the same compound?
Its GI50 is 1800 nM.

And the TGI (MOLT-4 leukemia)?
Its TGI is 8030 nM.

And the GI50 (RXF 393 renal)?
The GI50 was 943 nM.

And the TGI (RXF 393 renal)?
The TGI was 1740 nM.

What about the GI50 (CAKI-1 renal) of the same compound?
Its GI50 is 1770 nM.

And the TGI (CAKI-1 renal)?
Its TGI is 7150 nM.

What about the GI50 (KM12 colon) of the same compound?
The GI50 was 992 nM.

What about the TGI (KM12 colon) of the same compound?
Its TGI is 1960 nM.
